# Measured values reported in patent publication US9180136B2, “Identification and treatment of cancer subsets” (The Translational Genomics Research Institute, priority 2010, dated 2015).
# Counter-ions that a name gives are not always drawn.
# Tests used:
# [1] = test system: SCC-9; assay: CellTiter-Glo luminescent cell viability after IP6 treatment; assay type: cell-based, human; settings: SCC-9, 0.31-5 mM IP6, 72 hours, FIG. 18
# Protocol: (§1) The human head and neck squamous cell carcinoma lines evaluated were: SCC-4, SCC-9 and SCC-15. The colorectal cancer cell line HT-29 and the kidney embryonic line HEK293, purchased from the American Type Culture Collection (ATCC, Manassas, Va.), were used for comparison. Squamous cell lines were maintained in Dulbecco's Modified Eagle Medium: Nutrient Mixture F12 (DMEM/F12), with 10% Fetal bovine serum (FBS), 2 mM GlutaMAX, 25 mM Hepes buffer, 100 U/ml penicillin and 100 μg/ml streptomycin. HEK293 and HT-29 were cultured in DMEM and RPMI-1640 medium respectively, with the supplements mentioned above. All media and cell culture supplements were purchased from Invitrogen Corporation (Carlsbad, Calif.). Sub-confluent, rapidly growing cells were plated at a density of 600 cells/20 μL/well in a clear bottom 384-well plate with opaque walls, suitable for luminescent measurements. The next day, IP6 (Inositol hexakisphosphate, phytic acid, dipotassium salt, Sigma-Aldrich, St Louis, Mo.) solutions in culture medium, corresponding to the following concentrations: 0.3125, 0.625, 1.25, 2.5 and 5 mM, were prepared, and were stored at 4° C. for 4-6 h. Shortly before treatment, IP6 solutions were centrifuged to remove any precipitates that IP6 forms with calcium chloride. Four wells were treated for each condition. […] (San Luis Obispo, Calif.), following the manufacturer's instruction. Briefly, the assay buffer and substrate were equilibrated at room temperature, and mixed thoroughly. Without removing medium from wells, the assay reagent was added into each well (1:1, volume:volume of medium per well) and the content was mixed for 2 minutes on an orbital shaker to induce cell lysis. The plate was incubated at room temperature for 10 minutes, and the luminescence was read on a Perkin Elmer Victor^3 microplate reader. Data from each set of four replicates was averaged and the standard deviation was calculated. […]
# [2] = test system: SCC-4; assay: as above; assay type: cell-based, human; settings: SCC-4, 0.31-5 mM IP6, 72 hours, FIG. 18
# Protocol: as §1
# [3] = test system: SCC-15; assay: as above; assay type: cell-based, human; settings: SCC-15, 0.31-5 mM IP6, 72 hours, FIG. 18
# Protocol: as §1
# [4] = test system: colorectal adenocarcinoma (HT-29); assay: as above; assay type: cell-based; settings: HT-29, 0.31-5 mM IP6, 72 hours, FIG. 18
# Protocol: (§2) The human head and neck squamous cell carcinoma lines evaluated were: SCC-4, SCC-9 and SCC-15. The colorectal cancer cell line HT-29 and the kidney embryonic line HEK293, purchased from the American Type Culture Collection (ATCC, Manassas, Va.), were used for comparison. Squamous cell lines were maintained in Dulbecco's Modified Eagle Medium: Nutrient Mixture F12 (DMEM/F12), with 10% Fetal bovine serum (FBS), 2 mM GlutaMAX, 25 mM Hepes buffer, 100 U/ml penicillin and 100 μg/ml streptomycin. HEK293 and HT-29 were cultured in DMEM and RPMI-1640 medium respectively, with the supplements mentioned above. All media and cell culture supplements were purchased from Invitrogen Corporation (Carlsbad, Calif.). Sub-confluent, rapidly growing cells were plated at a density of 600 cells/20 μL/well in a clear bottom 384-well plate with opaque walls, suitable for luminescent measurements. The next day, IP6 (Inositol hexakisphosphate, phytic acid, dipotassium salt, Sigma-Aldrich, St Louis, Mo.) solutions in culture medium, corresponding to the following concentrations: 0.3125, 0.625, 1.25, 2.5 and 5 mM, were prepared, and were stored at 4° C. for 4-6 h. […] The plate was incubated at room temperature for 10 minutes, and the luminescence was read on a Perkin Elmer Victor^3 microplate reader. Data from each set of four replicates was averaged and the standard deviation was calculated. […]
# [5] = test system: transformed normal human embryonic kidney cell line (HEK-293); assay: as above; assay type: cell-based; settings: HEK-293, 0.31-5 mM IP6, 72 hours, FIG. 18
# Protocol: as §2
# [6] = test system: normal human keratinocytes; assay: TUNEL apoptosis staining of normal human keratinocytes at different confluence treated with IP6; assay type: cell-based; settings: for apoptosis (TUNEL staining): 2 mM IP6 for 24 hours
# Protocol: FIG. 12 depicts the effect of IP6 treatment on confluent normal human keratinocytes. […] The DNA blue fluorescence was produced by DAPI probe. Apoptotic nuclei red fluorescence was produced through TUNEL assay; FIG. 13 depicts the effect of IP6 treatment on 70% confluent keratinocytes. […] The DNA blue fluorescence was produced by DAPI probe. […] Normal human keratinocytes were harvested at various stages of confluency. Cell cultures were assessed by morphological evaluation of the cell and segregated into distinct culture confluence intervals at or near the plateau phase of growth, generally: lower confluence (L), 70-80%; medium confluence (M), 80-90%, and higher confluence (H), >95%. INPP5A mRNA expression at selected culture confluence levels was evaluated by qPCR.
# [7] = test system: SCC-4 cells; assay: TUNEL apoptosis staining of SCC-4 cells treated with IP6; assay type: cell-based, human; settings: SCC-4 cells treated with IP6 vs untreated, FIG. 8
# Source text: FIG. 8 depicts increased apoptosis in a squamous cell carcinoma cell line treated with IP6 (right panel B) relative to the same line without treatment (left panel A), and the DNA blue fluorescence was produced by DAPI probe. Apoptotic nuclei red fluorescence was produced through TUNEL assay; IP6 is an inositol metabolite that is dependant upon INPP5A activity for its synthesis (See FIG. 7). Addition of exogenous IP6 inhibits the cell proliferation brought about by INPP5A loss and drives cells towards a differentiated phenotype. […] Increased TUNEL staining (red) is seen in the IP6 treated cells.
smiles,measurement,setting,value
"O=P(O)(O)O[C@H]1[C@H](OP(=O)(O)O)[C@@H](OP(=O)(O)O)[C@H](OP(=O)(O)O)[C@@H](OP(=O)(O)O)[C@H]1OP(=O)(O)O [IP6, Inositol hexakisphosphate, phytic acid, dipotassium salt]",proportion of cells present after treatment relative to untreated cells,[1],"dose-dependent reduction in number, which is much greater for the SCC cells"
same,proportion of cells present after treatment relative to untreated cells,[2],"dose-dependent reduction in number, which is much greater for the SCC cells"
same,proportion of cells present after treatment relative to untreated cells,[3],"dose-dependent reduction in number, which is much greater for the SCC cells"
same,proportion of cells present after treatment relative to untreated cells,[4],dose-dependent reduction in number
same,proportion of cells present after treatment relative to untreated cells,[5],dose-dependent reduction in number
same,apoptosis (TUNEL staining),"[6]; 70% confluent keratinocytes, FIG. 13",Greater apoptosis relative to background
same,apoptosis (TUNEL staining),"[6]; 100% confluent keratinocytes, FIG. 12",reduced apoptosis
same,selectivity for cells with reduced INPP5A expression,[6]; normal human keratinocytes at various stages of confluency,selective for cells with reduced INPP5A expression
same,cell death by apoptosis (TUNEL staining),[7],significant cell death by apoptosis
